Measured values as given in ChEMBL document CHEMBL1153537, “Structure-activity relationship and molecular mechanisms of ethyl 2-amino-4-(2-ethoxy-2-oxoethyl)-6-phenyl-4h-chromene-3-carboxylate (sha 14-1) and its analogues” (J Med Chem, 2009).
Values after ≈ are worked out from the molar mass of the structure shown. Active and inactive are the calls of the source. The calls are words filed in the database; no cut-off is given here.

Experiments:
[1] = system: Jurkat; experiment: Cytotoxicity against human Jurkat cells after 48 hrs by cell titer-blue assay; format: functional, cell-based
[2] = system: HL-60; experiment: Cytotoxicity against human HL60 cells after 48 hrs by cell titer-blue assay; format: functional, cell-based; details: HL-60, 48 h
[3] = system: CCRF-CEM; experiment: Cytotoxicity against human CCRF-CEM cells after 48 hrs by cell titer-blue assay; format: functional, cell-based
[4] = Cytotoxicity against human CCRF-CEM/C2 cells after 48 hrs by cell titer-blue assay; format: functional, cell-based
[5] = Cytotoxicity against human HL60/MX2 cells after 48 hrs by cell titer-blue assay; format: functional, cell-based; details: HL60/MX2, 48 h
[6] = system: MCF7; experiment: Cytotoxicity against human MCF7 cells after 48 hrs by cell titer-blue assay; format: functional, cell-based; details: MCF7, 48 h
[7] = system: DU-145; experiment: Cytotoxicity against human DU145 cells after 48 hrs by cell titer-blue assay; format: functional, cell-based; details: DU-145, 48 h
[8] = target: Induced myeloid leukemia cell differentiation protein Mcl-1 (Homo sapiens, UniProt Q07820); experiment: Inhibition of recombinant His6-tagged MCL1 (171-326) expressed in Escherichia coli BL21 (DE3) and Flu-Bak peptide interaction by fluorescence polarization assay
[9] = Cytotoxicity against mouse Hepa-1c1c7 cells after 48 hrs by cell titer-blue assay; format: functional, cell-based; details: Hepa-1c1c7, 48 h
[10] = system: NCI-H460; experiment: Cytotoxicity against human H460 cells after 48 hrs by cell titer-blue assay; format: functional, cell-based; details: NCI-H460, 48 h
[11] = system: REH; experiment: Cytotoxicity against human REH cells after 48 hrs by cell titer-blue assay; format: functional, cell-based
[12] = system: NALM-6; experiment: Induction of apoptosis in human NALM6 cells assessed as PARP cleavage at 3.125 to 25 uM after 24 hrs; format: functional, cell-based
[13] = target: Bcl-2-like protein 1 (Homo sapiens, UniProt Q07817); experiment: Inhibition of recombinant His6-tagged Bcl-XL expressed in Escherichia coli BL21 (DE3) and Flu-Bak peptide interaction by fluorescence polarization assay
[14] = system: NALM-6; experiment: Cytotoxicity against human NALM6 cells after 48 hrs by cell titer-blue assay; format: functional, cell-based
[15] = system: NALM-6; experiment: Induction of apoptosis in human NALM6 cells assessed as caspase 3/7 activation at 0.4 to 100 uM after 24 hrs by fluorescence assay; format: functional, cell-based
[16] = Cytotoxicity against human SU-8686 cells after 48 hrs by cell titer-blue assay; format: functional, cell-based; details: SU.86.86, 48 h
[17] = system: HCT-116; experiment: Cytotoxicity against human HCT116 cells after 48 hrs by cell titer-blue assay; format: functional, cell-based; details: HCT-116, 48 h
[18] = system: HL-60; experiment: Ratio of GI50 for human HL60/MX2 cells to GI50 for human HL60 cells; format: functional
[19] = system: CCRF-CEM; experiment: Ratio of GI50 for human CCRF-CEM/C2 cells to GI50 for human CCRF-CEM cells; format: functional
[20] = system: NALM-6; experiment: Induction of apoptosis in human NALM6 cells assessed as PARP cleavage at 50 uM after 24 hrs; format: functional, cell-based
[21] = Homo sapiens, REH, 48 h, read-out: IC50
[22] = Homo sapiens, NALM-6, 48 h, read-out: IC50

Induced myeloid leukemia cell differentiation protein Mcl-1, sequence (Q07820 whole entry): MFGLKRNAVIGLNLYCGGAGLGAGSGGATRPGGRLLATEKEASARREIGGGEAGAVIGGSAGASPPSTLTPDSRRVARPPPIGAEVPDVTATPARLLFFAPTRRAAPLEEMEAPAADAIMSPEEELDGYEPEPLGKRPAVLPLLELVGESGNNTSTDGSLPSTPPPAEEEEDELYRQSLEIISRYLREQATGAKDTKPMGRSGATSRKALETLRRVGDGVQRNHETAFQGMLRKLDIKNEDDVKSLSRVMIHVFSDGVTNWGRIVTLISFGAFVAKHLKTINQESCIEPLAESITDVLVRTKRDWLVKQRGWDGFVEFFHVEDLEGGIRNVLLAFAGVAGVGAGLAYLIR
Bcl-2-like protein 1, sequence (Q07817 whole entry): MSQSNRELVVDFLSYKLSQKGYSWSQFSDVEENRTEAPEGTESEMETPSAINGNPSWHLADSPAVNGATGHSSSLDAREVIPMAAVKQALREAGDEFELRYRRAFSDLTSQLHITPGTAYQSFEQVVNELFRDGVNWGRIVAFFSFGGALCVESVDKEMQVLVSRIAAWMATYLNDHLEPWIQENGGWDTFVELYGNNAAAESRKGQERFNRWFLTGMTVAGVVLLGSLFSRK

CCOC(=O)CC1C(C#N)=C(N)Oc2ccc(-c3ccccc3)cc21 (centres undefined)
IC50 [1]: 52.5 µM

Nc1ccn([C@@H]2O[C@H](CO)[C@@H](O)[C@@H]2O)c(=O)n1 [CYTARABINE]
EC50 [2]: 0.657 µM
EC50 [3]: 0.00561 µM
EC50 [4]: 0.0228 µM
EC50 [5]: 0.261 µM

CCOC(=O)CC1C(C(=O)OCC)=C(N)Oc2ccc(-c3cc(OC)cc(OC)c3)cc21 (centres undefined)
IC50 [6]: 15.5 µM
IC50 [7]: 11.5 µM
Ki [8]: 42000 µM
IC50 [9]: 10.9 µM
IC50 [10]: 5.14 µM
IC50 [11, 21]: 4.16 µM
Activity [12]: Dose-dependent effect
Ki [13]: 1240 µM
IC50 [14, 22]: 4.74 µM
Activity [15]: Dose-dependent effect
IC50 [1]: 1.2 µM
IC50 [16]: 7.03 µM
IC50 [17]: 8.83 µM

CC(C)OC(=O)CC1C(C(=O)OC(C)C)=C(N)Oc2ccc(-c3ccccc3)cc21 (centres undefined)
IC50 [1]: 38.7 µM

CCOC(=O)C1=C(N)Oc2ccc(-c3ccccc3)cc2C1CC(=O)N(CC)CC (centres undefined)
IC50 [1]: 49.6 µM

O=C1c2c(O)ccc(O)c2C(=O)c2c(NCCNCCO)ccc(NCCNCCO)c21 [MITOXANTRONE]
GI50 [2]: 0.192 µg/mL (≈ 0.432 µM)
RatioGI50 [18]: 23
GI50 [5]: 4.42 µg/mL (≈ 9.94 µM)

CC[C@@]1(O)C(=O)OCc2c1cc1n(c2=O)Cc2cc3ccccc3nc2-1 [CAMPTOTHECIN]
GI50 [4]: 0.0432 µM
RatioGI50 [19]: 1879

CCOC(=O)CC1C(C(=O)OCC)=C(N)Oc2ccc(-c3ccc(C(C)(C)C)cc3)cc21 (centres undefined)
IC50 [1]: 35.5 µM

CCOC(=O)CC1C(C(=O)OCC)=C(N)Oc2ccc(-c3cccc4ccccc34)cc21 (centres undefined)
IC50 [1]: 5.83 µM

CCOC(=O)CC1C(C(=O)OCC)=C(N)Oc2cccc(-c3ccccc3)c21 (centres undefined)
IC50 [1]: 44.3 µM

CCOC(=O)CC1C(C(=O)OCC)=C(N)Oc2ccc(-c3ccc4ccccc4c3)cc21 (centres undefined)
IC50 [1]: 18.7 µM

COc1cccc2c1C(=O)c1c(O)c3c(c(O)c1C2=O)C[C@@](O)(C(=O)CO)C[C@@H]3O[C@H]1C[C@H](N)[C@H](O)[C@H](C)O1 [DOXORUBICIN]
EC50 [2]: 1.51 µM
EC50 [3]: 0.465 µM
EC50 [4]: 3.08 µM
EC50 [5]: 8.05 µM

CCCc1ccc2c(c1)C(CC(=O)OCC)C(C(=O)OCC)=C(N)O2 (centres undefined)
IC50 [1]: 57.3 µM

Nc1nc2[nH]cnc2c(=S)[nH]1 [THIOGUANINE]
EC50 [2]: 3.9 µM
EC50 [3]: 0.87 µM
EC50 [4]: 0.942 µM
EC50 [5]: 3.65 µM

CCOC(=O)CC1C(C(=O)OCC)=C(N)Oc2ccc(-c3cc(OC)c(OC)c(OC)c3)cc21 (centres undefined)
IC50 [1]: 13.6 µM

CCOC(=O)CC1C(C(=O)OCC)=C(N)Oc2ccc(-c3cc(O)cc(O)c3)cc21 (centres undefined)
IC50 [1]: 18.3 µM

CCOC(=O)CC1C(C(=O)OCC)=C(N)Oc2ccc(-c3cc(O)cc(OC)c3)cc21 (centres undefined)
IC50 [1]: 4.2 µM

CCOC(=O)C1=C(N)Oc2ccc(-c3ccccc3)cc2C1CC(=O)N1CCOCC1 (centres undefined)
IC50 [1]: > 100 µM

CCOC(=O)CC1C(C(=O)OCC)=C(N(C(C)=O)C(C)=O)Oc2ccc(-c3ccccc3)cc21 (centres undefined)
IC50 [1]: 70.6 µM

CCOC(=O)CC1C(C(=O)OCC)=C(N)Oc2ccccc21 (centres undefined)
IC50 [1]: 91.4 µM

CCOC(=O)C1=C(N)Oc2ccc(-c3ccccc3)cc2C1CC(=O)N1CCCCC1 (centres undefined)
IC50 [1]: 58.5 µM

CCOC(=O)CC1C(C(=O)OCC)=C(N)Oc2c(-c3ccccc3)cccc21 (centres undefined)
IC50 [1]: 49.8 µM

CN(C)CC[C@H](CSc1ccccc1)Nc1ccc(S(=O)(=O)NC(=O)c2ccc(N3CCN(Cc4ccccc4-c4ccc(Cl)cc4)CC3)cc2)cc1[N+](=O)[O-] [ABT 737]
IC50 [6]: 21.3 µM
IC50 [7]: 27.6 µM
IC50 [9]: 8.68 µM
IC50 [10]: 8.03 µM
IC50 ([11]; reh): Not Active
IC50 ([14]; nalm-6): Not Active
IC50 [1]: 1.38 µM
IC50 [16]: 4.24 µM
IC50 [17]: 4.06 µM

CCOC(=O)CC1C(C(=O)OCC)=C(NC(C)=O)Oc2ccc(-c3ccccc3)cc21 (centres undefined)
IC50 [1]: 67.7 µM

CCOC(=O)CC1C(C(=O)OCC)=C(N)Oc2ccc(-c3ccccc3)cc21 (centres undefined)
IC50 [6]: 18.9 µM
IC50 [7]: 14.7 µM
IC50 [9]: 22.8 µM
IC50 [10]: 15.5 µM
IC50 [11, 21]: 20.2 µM
Activity [20]: inactive
Ki [13]: 344 µM
IC50 [14, 22]: 44.2 µM
Activity [15]: Dose-dependent effect
IC50 [16]: 18.7 µM
IC50 [17]: 18.5 µM

CC[C@]1(O)C[C@H]2CN(CCc3c([nH]c4ccccc34)[C@@](C(=O)OC)(c3cc4c(cc3OC)N(C=O)[C@H]3[C@@](O)(C(=O)OC)[C@H](OC(C)=O)[C@]5(CC)C=CCN6CC[C@]43[C@@H]65)C2)C1 [VINCRISTINE]
EC50 [3]: 0.597 µM
EC50 [4]: 0.367 µM
EC50 [5]: 0.0609 µM

Cc1cc2c(C(C)C)c(O)c(O)c(C=O)c2c(O)c1-c1c(C)cc2c(C(C)C)c(O)c(O)c(C=O)c2c1O [GOSSYPOL]
Ki [8]: 6.54 µM

CCOC(=O)C1=C(N)Oc2ccc(-c3ccccc3)cc2C1CC(=O)N1CCNCC1 (centres undefined)
IC50 [1]: 53.7 µM

CCOC(=O)CC1C(C(=O)OCC)=C(N)Oc2ccc(Br)cc21 (centres undefined)
IC50 [1]: 57.3 µM

CCOC(=O)CC1C(C(=O)OCC)=C(N)Oc2cc(-c3ccccc3)ccc21 (centres undefined)
IC50 [1]: 51.6 µM
